For seven compounds, TGI and GI50 results are on record in PubChem BioAssay (NCI).

Some test systems named below: A549 NSCLC; BT-549 breast; COLO 205 colon; HCT-116 colon; HCT-15 colon; K-562 leukemia; KM12 colon; LOX IMVI melanoma; M14 melanoma; MDA-MB-231 breast; NCI-H522 lung; OVCAR-3 ovarian; OVCAR-5 ovarian; OVCAR-8 ovarian; PC-3 prostate; SF-295 CNS; SK-MEL-2 melanoma; U251 CNS; UACC-62 melanoma.
What all share (assay): growth of human tumour cells (NCI), 48 h

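A five-concentration, 48-hour dose response in 96-well plates underlies each endpoint, interpolated linearly between surrounding concentrations. The concentration for 50% growth inhibition is given as GI50. Definition used: TGI = concentration required for complete inhibition of growth.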

As to `CCOC(=O)/C(C#N)=C/c1ccc2c(-c3c(OCC)ccc4cc(/C=C(\C#N)C(=O)OCC)ccc34)c(OCC)ccc2c1`, the TGI in the test on A549 NSCLC, in the test on BT-549 breast, in the test with COLO 205 colon, in the test with HCT-116 colon, with HCT-15 colon and in the test with K-562 leukemia was above 100 µM in each case. The TGI was above 100 µM in the test on KM12 colon; above 100 µM in the test with LOX IMVI melanoma; 35.7 µM in the test with M14 melanoma; 56.1 µM in the test on MDA-MB-231 breast; above 100 µM in the test on NCI-H522 lung; above 100 µM in the test on OVCAR-3 ovarian. The TGI in the test with OVCAR-5 ovarian, in the test with OVCAR-8 ovarian, in the test on PC-3 prostate, with SF-295 CNS, in the test on SK-MEL-2 melanoma and with U251 CNS was above 100 µM each time. In addition, the TGI in the test with UACC-62 melanoma is above 100 µM.

Turning to `CC(=O)OCC1OC(On2ccccc2=S)C(OC(C)=O)C(OC(C)=O)C1OC(C)=O` (centres undefined), the TGI in the test on A549 NSCLC, with BT-549 breast, with COLO 205 colon, in the test on HCT-116 colon, in the test with HCT-15 colon and with K-562 leukemia was above 100 µM in each case. Besides, the TGI in the test on KM12 colon, in the test with LOX IMVI melanoma, with M14 melanoma, with MDA-MB-231 breast, in the test with NCI-H522 lung and in the test with OVCAR-3 ovarian was above 100 µM each time. Moreover, the TGI in the test on OVCAR-5 ovarian, with OVCAR-8 ovarian, in the test on PC-3 prostate, with SF-295 CNS, with SK-MEL-2 melanoma and in the test on U251 CNS was above 100 µM in each case. The TGI in the test on UACC-62 melanoma was above 100 µM.

As to `Cc1ccc(S(=O)ON2CCC(C(=O)O)(c3ccccc3)CC2)cc1` (centres undefined), the TGI in the test on A549 NSCLC, in the test on BT-549 breast, in the test on COLO 205 colon, in the test with HCT-116 colon, in the test with HCT-15 colon and in the test on K-562 leukemia was above 100 µM in each case. Further, the TGI in the test with KM12 colon, in the test on LOX IMVI melanoma, in the test on M14 melanoma, in the test on MDA-MB-231 breast, in the test with NCI-H522 lung and with OVCAR-3 ovarian was above 100 µM throughout. In addition, the TGI with OVCAR-5 ovarian, in the test with OVCAR-8 ovarian, with PC-3 prostate, with SF-295 CNS, with SK-MEL-2 melanoma and with U251 CNS was above 100 µM in each case. The compound further gave a TGI in the test with UACC-62 melanoma above 100 µM. The GI50 in the test with SK-MEL-2 melanoma is above 100 µM.

As to `Cc1ccc(Nc2nc(=S)[nH]c3[nH]ncc23)cc1`, the TGI in the test on A549 NSCLC, in the test with BT-549 breast, in the test on COLO 205 colon, in the test on HCT-116 colon, in the test with HCT-15 colon and with K-562 leukemia was above 100 µM each time. In addition, the TGI with KM12 colon, in the test on LOX IMVI melanoma, in the test on M14 melanoma, with MDA-MB-231 breast, in the test with NCI-H522 lung and with OVCAR-3 ovarian was above 100 µM each time. The TGI with OVCAR-5 ovarian, in the test with OVCAR-8 ovarian, in the test on PC-3 prostate, with SF-295 CNS, in the test on SK-MEL-2 melanoma and in the test on U251 CNS was above 100 µM each time. Further, the TGI in the test on UACC-62 melanoma was above 100 µM.

For `COc1cc(NS(C)(=O)=O)ccc1NCc1cnc2ccc3[nH]c(C)ccc3c12`, the TGI in the test on A549 NSCLC was above 100 µM; in the test with BT-549 breast it was above 100 µM; with COLO 205 colon, above 100 µM; in the test with HCT-116 colon it was above 100 µM; in the test with HCT-15 colon, above 100 µM; with K-562 leukemia it was 62.2 µM. Besides, the TGI was above 100 µM in the test on KM12 colon; above 100 µM in the test with LOX IMVI melanoma; above 100 µM in the test on M14 melanoma; above 100 µM with MDA-MB-231 breast; above 100 µM in the test on NCI-H522 lung; 91.9 µM in the test with OVCAR-3 ovarian. The TGI in the test on OVCAR-5 ovarian is above 100 µM; in the test with OVCAR-8 ovarian, above 100 µM; in the test with PC-3 prostate, above 100 µM; in the test with SF-295 CNS, above 100 µM; in the test with SK-MEL-2 melanoma it was 52.3 µM; with U251 CNS, above 100 µM. In the test with UACC-62 melanoma, this compound came in with a TGI above 100 µM.

As to `O=C(c1ccccc1)c1ccc(C(c2c(O)c3ccccc3oc2=O)c2c(O)c3ccccc3oc2=O)cc1`, the TGI is above 82.5 µM with A549 NSCLC; 48.9 µM in the test on BT-549 breast; above 73 µM with COLO 205 colon; above 80.2 µM in the test with HCT-116 colon; above 95.3 µM with HCT-15 colon; above 72.1 µM in the test on K-562 leukemia. The TGI was 37.1 µM with KM12 colon; above 100 µM in the test with LOX IMVI melanoma; 63.3 µM in the test on M14 melanoma; above 71.4 µM in the test on MDA-MB-231 breast; 43 µM in the test with NCI-H522 lung; above 56.6 µM in the test on OVCAR-3 ovarian. Further, the TGI is 51.4 µM in the test with OVCAR-5 ovarian; above 75.1 µM with OVCAR-8 ovarian; above 74.5 µM with PC-3 prostate; 53.3 µM with SF-295 CNS; above 71.3 µM in the test with SK-MEL-2 melanoma; above 78.4 µM in the test on U251 CNS. In the test with UACC-62 melanoma, this compound returned a TGI of 39.5 µM.

With `CC/C(=N\NC(=O)c1cccnc1)c1ccc2c(c1)OCCO2`, the TGI with A549 NSCLC, with BT-549 breast, in the test on COLO 205 colon, in the test on HCT-116 colon, in the test with HCT-15 colon and in the test with K-562 leukemia was above 100 µM in each case. Further, the TGI with KM12 colon is above 100 µM; in the test with LOX IMVI melanoma, above 100 µM; with M14 melanoma it was above 100 µM; with MDA-MB-231 breast, above 100 µM; in the test with NCI-H522 lung it was 79.5 µM; in the test on OVCAR-3 ovarian, above 100 µM. For the same compound, the TGI in the test with OVCAR-5 ovarian, in the test on OVCAR-8 ovarian, with PC-3 prostate, in the test with SF-295 CNS, in the test on SK-MEL-2 melanoma and in the test on U251 CNS was above 100 µM throughout. The compound further showed a TGI with UACC-62 melanoma above 100 µM.
